The text below walks through data of PubChem BioAssay (NCI).

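Five compound concentrations were applied to cells in 96-well plates for 48 hours; endpoints were derived by simple linear interpolation of the resulting dose-response curve. TGI denotes the concentration required for complete inhibition of growth.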

Among the test systems are SNB-78 CNS; XF 498 CNS; LXFL 529 NSCLC; DLD-1 colon; HOP-18 NSCLC; M19-MEL melanoma; RXF-631 renal; DMS 114 small cell lung; DMS 273 small cell lung.
Common to all, as to assay: DTP human tumour cell line panel, 48 h

For orientation: TGI means the concentration giving total growth inhibition. A low value points to more potent growth arrest. For `COc1ccc(Cc2c3cc(OC)c(OC)cc3cc[n+]2C)cc1`, the TGI with SNB-78 CNS was above 100 µM; in the assay with XF 498 CNS it was above 23.4 µM; in the assay with LXFL 529 NSCLC it was above 24.6 µM; with DLD-1 colon it was above 26.9 µM; in the assay on HOP-18 NSCLC, above 45.8 µM; in the assay on M19-MEL melanoma it was above 55.3 µM. Besides, the TGI was above 24 µM in the assay on RXF-631 renal and above 28.8 µM in the assay on DMS 114 small cell lung.
For the compound `CC1CC(=O)C(CC(=O)O)[C@H]1C(C(=O)C(=O)Nc1cc(Cl)ccc1Cl)[N+](=O)[O-]` (stereo not given in full), the TGI with XF 498 CNS, in the assay with DLD-1 colon, in the assay on HOP-18 NSCLC, in the assay with M19-MEL melanoma and with DMS 114 small cell lung was above 100 µM in each case.
As for `C[C@H](O)CCC(=O)c1ccoc1`, the concentration for total growth inhibition (TGI) in the assay with SNB-78 CNS, with LXFL 529 NSCLC, in the assay on DLD-1 colon, in the assay on DMS 273 small cell lung, in the assay on HOP-18 NSCLC and in the assay on M19-MEL melanoma was above 100 µM in each case. This compound came in with a TGI in the assay with DMS 114 small cell lung above 100 µM.
Turning to `COC1=C(OC)C(=O)c2cc(C)c(=O)c(C)cc2C1=O`, the total growth inhibition concentration (TGI) in the assay with SNB-78 CNS is 45.5 µM; in the assay with LXFL 529 NSCLC, 13.9 µM; in the assay on DLD-1 colon, 41.4 µM; with DMS 273 small cell lung it was 45.5 µM; in the assay on HOP-18 NSCLC, 29.9 µM; with M19-MEL melanoma, 11.5 µM. Also, the TGI with RXF-631 renal is above 100 µM; in the assay with DMS 114 small cell lung, 12.7 µM.
Regarding `O=c1ccn([C@@H]2C[C@H](CO)CS(=O)C2)c(=O)[nH]1` (stereo not given in full), the TGI in the assay on LXFL 529 NSCLC, in the assay with DLD-1 colon, in the assay on DMS 273 small cell lung, in the assay on HOP-18 NSCLC, in the assay with M19-MEL melanoma and with DMS 114 small cell lung was above 100 µM each time.
On to `N#CC(NNC(=O)c1ccccc1O)c1ccccc1O` (stereo not given), for which the concentration for total growth inhibition (TGI) in the assay on SNB-78 CNS was above 100 µM; in the assay with LXFL 529 NSCLC, above 100 µM; in the assay on DLD-1 colon it was above 100 µM; with DMS 273 small cell lung, above 100 µM; in the assay with HOP-18 NSCLC it was above 100 µM; in the assay with M19-MEL melanoma, 27.2 µM.
As to `Cc1[nH]n(C(=O)Cc2ccccc2)c(=O)c1/C=C1\C(=O)C=Cc2ccccc21`, the TGI in the assay on DMS 273 small cell lung was above 100 µM; with HOP-18 NSCLC, 84.6 µM; in the assay with M19-MEL melanoma, above 100 µM; with DMS 114 small cell lung, above 100 µM.
Consider `COC(=O)N1C=Cc2c(c(C)c3c([nH]c4ccccc43)c2C)C1C` (stereo not given), for which the TGI turned out to be 34.2 µM in the assay with XF 498 CNS; 43.7 µM in the assay with LXFL 529 NSCLC; 32.7 µM in the assay with DLD-1 colon; 39 µM in the assay on DMS 273 small cell lung; 37.6 µM in the assay with M19-MEL melanoma; 37.5 µM with RXF-631 renal. In addition, the TGI with DMS 114 small cell lung stood at 40 µM.
`COc1cc(/C=C(\C#N)C(=O)c2ccccc2)cc(OC)c1OC`: the TGI in the assay with SNB-78 CNS, in the assay on LXFL 529 NSCLC, with DLD-1 colon, in the assay on DMS 273 small cell lung, in the assay on HOP-18 NSCLC and in the assay on M19-MEL melanoma was above 100 µM each time. In the assay on DMS 114 small cell lung, this compound returned a TGI above 100 µM.
In the case of `CSc1cnc2ccccc2c1Sc1cn(C)c2ccccc2c1=O`, the TGI is 70.8 µM with XF 498 CNS; above 100 µM with DLD-1 colon; above 100 µM with DMS 273 small cell lung; above 100 µM in the assay on HOP-18 NSCLC; above 100 µM in the assay with M19-MEL melanoma; 42.5 µM in the assay with RXF-631 renal. This compound had a TGI in the assay on DMS 114 small cell lung of 67.7 µM.
With `CCCCCCCCCCCCCCCCCCCCCCC(=O)N[C@H]1CCc2cc(OC)c(OC)c(OC)c2-c2ccc(SC)c(=O)cc21`, the TGI is above 100 µM with SNB-78 CNS; 61.3 µM with XF 498 CNS; above 100 µM in the assay with LXFL 529 NSCLC; above 100 µM in the assay on DMS 273 small cell lung; above 100 µM in the assay with M19-MEL melanoma; 51.4 µM in the assay with RXF-631 renal.
As for `CCCCc1c2c([n+]([O-])c3c1CCCC3)CCCC2`, the total growth inhibition concentration (TGI) in the assay with XF 498 CNS, in the assay on LXFL 529 NSCLC, in the assay with DMS 273 small cell lung, in the assay on M19-MEL melanoma and in the assay with DMS 114 small cell lung was above 100 µM in each case.
As for `CSC(SC)=C1Sc2cccc(Cl)c2S1`, the total growth inhibition concentration (TGI) in the assay on SNB-78 CNS was above 100 µM; in the assay on XF 498 CNS, 76.9 µM; in the assay on LXFL 529 NSCLC it was above 100 µM; with DLD-1 colon, above 100 µM; in the assay on DMS 273 small cell lung it was above 100 µM; in the assay with HOP-18 NSCLC it was above 100 µM. In addition, the concentration for total growth inhibition (TGI) with M19-MEL melanoma is above 100 µM; in the assay on DMS 114 small cell lung it was 79.8 µM.
`CCn1c(O)c(C(=O)Nc2cccs2)c(=O)n(CC)c1=S`: the TGI in the assay with SNB-78 CNS was 50.4 µM; in the assay with LXFL 529 NSCLC it was 55.7 µM; in the assay on DLD-1 colon, above 100 µM; in the assay with M19-MEL melanoma, 39 µM; in the assay with RXF-631 renal it was 41.8 µM; in the assay on DMS 114 small cell lung it was 31.7 µM.
